Results as given in US20240269139A1, “COMPOUNDS FOR TARGETED PROTEIN DEGRADATION OF KINASES” (DANA-FARBER CANCER INSTITUTE, INC., priority 2020, published 2024).
Read-outs that look alike come from different tables or passages of the source.

Experiments:
[1] = molecular target: T1, protein kinases (human kinome) (Homo sapiens, UniProt Q969Z0); assay type: cell-based; conditions: Accession Q969Z0-1; experiment wp084; direction down
T1 sequence (Q969Z0 108-631): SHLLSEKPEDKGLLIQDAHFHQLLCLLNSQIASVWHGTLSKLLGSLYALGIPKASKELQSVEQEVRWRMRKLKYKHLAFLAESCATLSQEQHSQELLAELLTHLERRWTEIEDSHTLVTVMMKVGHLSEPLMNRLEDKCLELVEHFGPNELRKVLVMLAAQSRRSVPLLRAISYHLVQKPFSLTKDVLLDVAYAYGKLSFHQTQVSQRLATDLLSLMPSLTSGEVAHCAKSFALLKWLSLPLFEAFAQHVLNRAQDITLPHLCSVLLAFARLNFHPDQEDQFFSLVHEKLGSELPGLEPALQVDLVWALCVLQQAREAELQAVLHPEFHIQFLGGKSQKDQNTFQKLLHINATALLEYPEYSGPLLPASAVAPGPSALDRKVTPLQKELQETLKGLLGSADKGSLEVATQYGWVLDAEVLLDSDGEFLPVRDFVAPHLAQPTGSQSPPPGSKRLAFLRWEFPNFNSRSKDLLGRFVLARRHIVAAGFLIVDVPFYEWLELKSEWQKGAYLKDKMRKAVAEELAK
From the text: (§1) Although development of targeted protein degraders requires a POI binder, among already-liganded proteins such as kinases, it was hypothesized that different targets would have a different propensity for current approaches to degrader-mediated destruction, which was termed ‘degradability’. […] It was rationalized that the probability of identifying the same kinase as a false positive in multiple treatments is low, therefore this analysis served to also assess the robustness of our data and subsequent interpretations. […] Overall, 62 protein kinases were degraded in more than 10 independent treatments, and remarkably, 9 of these (CDK4, AURKA, FER, WEE1, BLK. LIMK2, CDK6, GAK, LIMK1) were each degraded in at least 40 of the 154 independent treatments, emphasizing their predisposition to induced degradation (FIG. 1G; Appendix I).
(§2) Next, the frequency of degradation assessment was corrected for over-representation of molecules in the full dataset by omitting replicate profiling of compounds under different experimental conditions, to remove any bias. […] Unsurprisingly, the top degradable kinases mirror those from the previous analysis (CDK4, AURKA, FER, WEE1, BLK), confirming that in sufficiently large datasets, even with over-representation of certain molecules, frequency of degradation is a good measure of general tractability.

[2] = molecular target: T2, protein kinases (human kinome) (Homo sapiens, UniProt O95835); assay type: cell-based; conditions: LATS1 O95835; experiment wp195
T2 sequence (O95835 1-1130): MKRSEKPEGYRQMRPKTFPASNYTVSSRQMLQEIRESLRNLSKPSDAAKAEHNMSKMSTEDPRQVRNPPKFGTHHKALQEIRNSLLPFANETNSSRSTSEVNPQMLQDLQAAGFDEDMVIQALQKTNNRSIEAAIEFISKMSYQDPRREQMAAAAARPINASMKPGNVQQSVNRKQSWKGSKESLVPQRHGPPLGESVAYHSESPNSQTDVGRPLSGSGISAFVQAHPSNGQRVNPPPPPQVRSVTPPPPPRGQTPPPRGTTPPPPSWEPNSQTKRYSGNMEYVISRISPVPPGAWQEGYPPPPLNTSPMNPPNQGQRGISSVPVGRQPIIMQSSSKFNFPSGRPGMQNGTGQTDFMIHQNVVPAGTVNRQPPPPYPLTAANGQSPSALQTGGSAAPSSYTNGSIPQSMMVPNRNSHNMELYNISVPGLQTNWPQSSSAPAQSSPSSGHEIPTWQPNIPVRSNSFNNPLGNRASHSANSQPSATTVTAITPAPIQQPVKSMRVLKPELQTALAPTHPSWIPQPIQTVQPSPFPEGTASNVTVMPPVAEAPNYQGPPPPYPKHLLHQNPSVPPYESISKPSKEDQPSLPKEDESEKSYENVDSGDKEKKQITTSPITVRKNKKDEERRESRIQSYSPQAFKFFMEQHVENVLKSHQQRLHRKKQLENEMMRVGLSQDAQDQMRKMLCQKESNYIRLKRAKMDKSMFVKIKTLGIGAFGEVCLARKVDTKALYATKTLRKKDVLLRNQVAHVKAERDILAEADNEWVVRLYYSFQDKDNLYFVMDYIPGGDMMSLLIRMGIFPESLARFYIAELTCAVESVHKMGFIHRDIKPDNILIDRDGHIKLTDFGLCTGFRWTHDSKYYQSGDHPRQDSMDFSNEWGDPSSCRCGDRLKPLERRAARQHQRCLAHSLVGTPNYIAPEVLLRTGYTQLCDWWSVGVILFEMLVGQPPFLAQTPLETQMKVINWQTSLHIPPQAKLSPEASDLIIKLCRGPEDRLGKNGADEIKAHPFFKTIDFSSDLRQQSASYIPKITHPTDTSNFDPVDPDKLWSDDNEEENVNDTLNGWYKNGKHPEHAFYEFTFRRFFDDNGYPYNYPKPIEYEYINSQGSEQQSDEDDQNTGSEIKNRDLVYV
From the text: as §1, §2

[3] = molecular target: T3, protein kinases (human kinome) (Homo sapiens, UniProt Q9UEE5); assay type: cell-based; conditions: STK17A Q9UEE5; experiment wp195
T3 sequence (Q9UEE5 1-414): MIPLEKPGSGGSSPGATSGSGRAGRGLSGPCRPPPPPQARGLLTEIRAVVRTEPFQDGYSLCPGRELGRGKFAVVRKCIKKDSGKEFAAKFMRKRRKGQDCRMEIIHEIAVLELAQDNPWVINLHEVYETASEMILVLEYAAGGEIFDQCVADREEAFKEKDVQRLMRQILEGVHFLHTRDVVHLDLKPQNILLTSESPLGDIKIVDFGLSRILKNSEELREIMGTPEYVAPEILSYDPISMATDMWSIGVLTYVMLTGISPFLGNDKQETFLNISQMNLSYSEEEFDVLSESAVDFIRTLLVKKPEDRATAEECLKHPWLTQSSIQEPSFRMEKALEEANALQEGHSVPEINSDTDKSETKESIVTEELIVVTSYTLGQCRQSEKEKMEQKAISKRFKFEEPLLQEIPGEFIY
From the text: as §1, §2

[4] = molecular target: T4, extended human kinome (kinase-like proteins) (Homo sapiens, UniProt Q9UHH9); test: Whole cell quantitative proteomics: extended kinome hits; conditions: Accession Q9UHH9; experiment wp195
T4 sequence (Q9UHH9 1-426): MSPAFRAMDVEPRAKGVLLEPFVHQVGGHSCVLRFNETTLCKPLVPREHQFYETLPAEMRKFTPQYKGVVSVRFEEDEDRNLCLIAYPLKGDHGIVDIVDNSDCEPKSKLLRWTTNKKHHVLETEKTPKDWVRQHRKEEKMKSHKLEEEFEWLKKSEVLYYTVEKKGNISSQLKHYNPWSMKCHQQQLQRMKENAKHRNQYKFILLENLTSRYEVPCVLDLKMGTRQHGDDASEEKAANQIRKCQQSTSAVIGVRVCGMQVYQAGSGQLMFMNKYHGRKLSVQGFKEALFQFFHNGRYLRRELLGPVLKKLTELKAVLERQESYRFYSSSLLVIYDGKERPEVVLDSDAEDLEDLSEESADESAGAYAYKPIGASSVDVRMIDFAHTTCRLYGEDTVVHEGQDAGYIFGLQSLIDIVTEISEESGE

[5] = molecular target: T5, protein kinases (human kinome) (Homo sapiens, UniProt O14965); assay type: cell-based; conditions: experiment wp146
T5 sequence (O14965 1-403): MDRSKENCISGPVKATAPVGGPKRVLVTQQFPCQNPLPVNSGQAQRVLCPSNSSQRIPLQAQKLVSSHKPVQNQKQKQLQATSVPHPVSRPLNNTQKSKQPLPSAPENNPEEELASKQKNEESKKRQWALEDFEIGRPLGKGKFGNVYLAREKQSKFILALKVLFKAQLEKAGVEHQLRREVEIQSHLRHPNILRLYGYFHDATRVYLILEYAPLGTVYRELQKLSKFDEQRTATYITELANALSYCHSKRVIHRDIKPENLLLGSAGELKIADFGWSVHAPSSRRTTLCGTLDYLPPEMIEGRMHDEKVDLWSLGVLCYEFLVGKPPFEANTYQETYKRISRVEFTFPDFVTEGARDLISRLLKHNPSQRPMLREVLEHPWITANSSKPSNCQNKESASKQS
From the text: as §1, §2

[6] = molecular target: protein kinases (human kinome) (Homo sapiens, UniProt P06493); assay type: cell-based; conditions: CDK1 P06493; experiment wp146
Sequence of protein kinases (human kinome) (Homo sapiens, UniProt P06493) (P06493 whole entry): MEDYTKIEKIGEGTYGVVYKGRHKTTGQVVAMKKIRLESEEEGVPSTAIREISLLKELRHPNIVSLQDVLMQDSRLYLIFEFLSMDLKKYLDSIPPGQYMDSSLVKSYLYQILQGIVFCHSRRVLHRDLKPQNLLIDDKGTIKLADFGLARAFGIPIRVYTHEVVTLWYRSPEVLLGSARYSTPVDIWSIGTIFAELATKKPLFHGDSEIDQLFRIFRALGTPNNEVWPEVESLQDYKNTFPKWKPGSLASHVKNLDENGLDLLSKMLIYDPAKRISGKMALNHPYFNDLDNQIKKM
From the text: as §1, §2

[7] = molecular target: protein kinases (human kinome) (Homo sapiens, UniProt P24941); assay type: cell-based; conditions: experiment wp146
From the text: as §1, §2

[8] = molecular target: T6, protein kinases (human kinome) (Homo sapiens, UniProt P33981); assay type: cell-based; conditions: experiment wp146
T6 sequence (P33981 1-857): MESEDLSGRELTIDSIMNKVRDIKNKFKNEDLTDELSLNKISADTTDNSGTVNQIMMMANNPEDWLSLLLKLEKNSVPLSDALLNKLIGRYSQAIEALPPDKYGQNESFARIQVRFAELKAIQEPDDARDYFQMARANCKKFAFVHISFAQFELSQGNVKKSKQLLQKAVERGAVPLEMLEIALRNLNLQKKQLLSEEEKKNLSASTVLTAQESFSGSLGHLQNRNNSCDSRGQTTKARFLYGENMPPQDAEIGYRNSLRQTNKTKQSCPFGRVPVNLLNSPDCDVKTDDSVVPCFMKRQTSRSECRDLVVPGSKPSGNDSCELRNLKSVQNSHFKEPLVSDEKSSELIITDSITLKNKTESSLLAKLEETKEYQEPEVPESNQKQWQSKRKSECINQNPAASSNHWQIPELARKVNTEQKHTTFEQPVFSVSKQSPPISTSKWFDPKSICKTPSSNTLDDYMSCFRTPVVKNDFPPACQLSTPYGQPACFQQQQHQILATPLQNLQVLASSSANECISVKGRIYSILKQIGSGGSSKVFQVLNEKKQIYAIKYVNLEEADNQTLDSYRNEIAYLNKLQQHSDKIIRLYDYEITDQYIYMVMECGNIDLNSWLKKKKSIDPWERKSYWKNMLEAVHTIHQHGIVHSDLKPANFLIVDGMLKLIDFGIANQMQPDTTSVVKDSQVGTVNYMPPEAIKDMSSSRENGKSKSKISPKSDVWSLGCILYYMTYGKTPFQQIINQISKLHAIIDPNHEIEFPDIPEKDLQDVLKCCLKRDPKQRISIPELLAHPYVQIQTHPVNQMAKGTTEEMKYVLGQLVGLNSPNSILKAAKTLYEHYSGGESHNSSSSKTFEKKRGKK
From the text: as §1, §2

[9] = molecular target: protein kinases (human kinome) (Homo sapiens, UniProt P45984); assay type: cell-based; conditions: MAPK9 P45984-1; experiment wp146
Sequence of protein kinases (human kinome) (Homo sapiens, UniProt P45984) (P45984 whole entry): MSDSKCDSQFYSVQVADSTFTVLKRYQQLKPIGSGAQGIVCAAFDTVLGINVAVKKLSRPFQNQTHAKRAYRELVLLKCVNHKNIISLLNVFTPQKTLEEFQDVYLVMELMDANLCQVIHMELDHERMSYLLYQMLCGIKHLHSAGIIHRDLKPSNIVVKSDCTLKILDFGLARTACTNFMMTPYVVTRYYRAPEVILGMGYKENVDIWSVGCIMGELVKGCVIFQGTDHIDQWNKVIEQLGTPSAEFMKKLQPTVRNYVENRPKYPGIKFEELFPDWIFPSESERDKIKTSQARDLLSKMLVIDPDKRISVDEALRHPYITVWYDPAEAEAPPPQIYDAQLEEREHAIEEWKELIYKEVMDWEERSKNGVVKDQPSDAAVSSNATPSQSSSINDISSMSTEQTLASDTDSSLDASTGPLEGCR
From the text: as §1, §2

[10] = molecular target: protein kinases (human kinome) (Homo sapiens, UniProt P51812); assay type: cell-based; conditions: RPS6KA3 (P51812), experiment wp146
Sequence of protein kinases (human kinome) (Homo sapiens, UniProt P51812) (P51812 whole entry): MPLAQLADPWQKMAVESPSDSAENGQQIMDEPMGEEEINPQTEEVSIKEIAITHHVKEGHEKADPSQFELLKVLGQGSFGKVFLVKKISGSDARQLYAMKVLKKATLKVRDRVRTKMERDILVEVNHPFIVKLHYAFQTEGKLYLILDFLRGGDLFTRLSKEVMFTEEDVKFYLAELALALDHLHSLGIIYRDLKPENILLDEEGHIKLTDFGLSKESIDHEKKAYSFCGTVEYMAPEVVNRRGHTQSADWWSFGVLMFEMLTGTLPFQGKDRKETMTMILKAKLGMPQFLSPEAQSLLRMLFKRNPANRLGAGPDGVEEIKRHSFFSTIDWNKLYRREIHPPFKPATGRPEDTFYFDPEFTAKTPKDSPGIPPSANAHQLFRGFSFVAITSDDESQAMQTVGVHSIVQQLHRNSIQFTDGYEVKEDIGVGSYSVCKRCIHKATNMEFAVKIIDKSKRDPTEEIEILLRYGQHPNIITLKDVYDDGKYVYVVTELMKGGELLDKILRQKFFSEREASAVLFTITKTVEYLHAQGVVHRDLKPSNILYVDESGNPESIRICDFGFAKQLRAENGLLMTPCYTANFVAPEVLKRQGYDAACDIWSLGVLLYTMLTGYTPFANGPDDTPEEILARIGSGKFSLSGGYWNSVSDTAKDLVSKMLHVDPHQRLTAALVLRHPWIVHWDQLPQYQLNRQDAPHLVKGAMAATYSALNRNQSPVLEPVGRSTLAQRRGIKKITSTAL
From the text: as §1, §2

[11] = molecular target: protein kinases (human kinome) (Homo sapiens, UniProt Q00535); assay type: cell-based; conditions: experiment wp146
Sequence of protein kinases (human kinome) (Homo sapiens, UniProt Q00535) (Q00535 whole entry): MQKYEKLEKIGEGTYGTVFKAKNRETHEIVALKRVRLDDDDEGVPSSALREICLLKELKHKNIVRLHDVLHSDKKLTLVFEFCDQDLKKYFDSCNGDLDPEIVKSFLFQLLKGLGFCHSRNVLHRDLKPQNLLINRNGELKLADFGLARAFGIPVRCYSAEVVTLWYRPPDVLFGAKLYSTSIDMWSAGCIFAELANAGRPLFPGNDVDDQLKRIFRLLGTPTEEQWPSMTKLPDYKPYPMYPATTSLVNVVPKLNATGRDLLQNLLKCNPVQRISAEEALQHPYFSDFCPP
From the text: as §1, §2

[12] = molecular target: protein kinases (human kinome) (Homo sapiens, UniProt Q05397); assay type: cell-based; conditions: PTK2 Q05397; experiment wp146
Sequence of protein kinases (human kinome) (Homo sapiens, UniProt Q05397) (Q05397 whole entry): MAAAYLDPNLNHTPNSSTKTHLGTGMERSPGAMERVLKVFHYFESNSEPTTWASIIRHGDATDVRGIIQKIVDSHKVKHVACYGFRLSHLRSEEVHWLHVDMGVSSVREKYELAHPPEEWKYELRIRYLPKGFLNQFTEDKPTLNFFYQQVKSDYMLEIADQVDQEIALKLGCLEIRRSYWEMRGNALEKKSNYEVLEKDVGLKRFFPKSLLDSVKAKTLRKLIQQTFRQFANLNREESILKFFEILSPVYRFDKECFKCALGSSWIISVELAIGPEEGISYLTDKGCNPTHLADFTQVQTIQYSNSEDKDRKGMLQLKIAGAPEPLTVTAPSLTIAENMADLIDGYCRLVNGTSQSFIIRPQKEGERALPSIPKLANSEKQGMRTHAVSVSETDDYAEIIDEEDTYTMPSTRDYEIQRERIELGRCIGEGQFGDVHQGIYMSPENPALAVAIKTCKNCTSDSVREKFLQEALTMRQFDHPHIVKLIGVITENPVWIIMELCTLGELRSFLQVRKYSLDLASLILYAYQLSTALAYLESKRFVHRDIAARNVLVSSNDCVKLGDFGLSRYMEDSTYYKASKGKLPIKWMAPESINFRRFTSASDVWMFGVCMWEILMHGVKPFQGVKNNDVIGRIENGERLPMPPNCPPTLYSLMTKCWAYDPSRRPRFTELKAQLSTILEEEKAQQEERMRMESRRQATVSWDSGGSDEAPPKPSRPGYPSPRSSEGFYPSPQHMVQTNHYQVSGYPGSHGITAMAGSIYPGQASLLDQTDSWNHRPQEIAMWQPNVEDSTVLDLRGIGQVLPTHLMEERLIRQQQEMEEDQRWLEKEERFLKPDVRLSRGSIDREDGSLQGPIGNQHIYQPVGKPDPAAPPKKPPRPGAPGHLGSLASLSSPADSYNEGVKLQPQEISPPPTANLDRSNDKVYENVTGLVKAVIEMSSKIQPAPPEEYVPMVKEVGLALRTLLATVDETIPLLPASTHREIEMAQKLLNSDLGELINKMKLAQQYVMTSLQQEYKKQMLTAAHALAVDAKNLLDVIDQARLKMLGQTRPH
From the text: as §1, §2

[13] = molecular target: protein kinases (human kinome) (Homo sapiens, UniProt Q9BYT3); assay type: cell-based; conditions: STK33 (Q9BYT3-1), experiment wp146
Sequence of protein kinases (human kinome) (Homo sapiens, UniProt Q9BYT3) (Q9BYT3 whole entry): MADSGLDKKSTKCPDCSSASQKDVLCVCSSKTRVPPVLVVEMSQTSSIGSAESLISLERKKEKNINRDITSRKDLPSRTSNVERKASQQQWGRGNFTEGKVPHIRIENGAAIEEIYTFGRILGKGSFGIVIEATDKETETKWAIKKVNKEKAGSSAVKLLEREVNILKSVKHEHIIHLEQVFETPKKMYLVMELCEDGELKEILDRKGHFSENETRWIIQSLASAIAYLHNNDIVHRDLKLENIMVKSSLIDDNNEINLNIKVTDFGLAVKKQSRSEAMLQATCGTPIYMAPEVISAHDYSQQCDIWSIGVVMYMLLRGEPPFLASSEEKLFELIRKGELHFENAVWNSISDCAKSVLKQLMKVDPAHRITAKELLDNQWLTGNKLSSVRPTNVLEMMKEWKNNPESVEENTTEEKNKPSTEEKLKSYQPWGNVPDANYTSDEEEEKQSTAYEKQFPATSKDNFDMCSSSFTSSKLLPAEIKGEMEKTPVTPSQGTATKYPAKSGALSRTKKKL
From the text: as §1, §2

[14] = tested on: protein kinases (human kinome); assay type: cell-based
From the text: as §1, §2

[15] = AURKB Q96GD4-5, experiment wp146

Structure (SMILES): CC(=O)c1c(C)c2cnc(Nc3ccc(N4CCN(CCOCCOCCOCCNC(=O)COc5cccc6c5C(=O)N(C5CCC(=O)NC5=O)C6=O)CC4)cn3)nc2n(C2CCCC2)c1=O (centres unmarked) [BS.J.03.123]
- logFC TBRG4 [1]: −0.5

Structure (SMILES): Cc1ncsc1-c1ccc([C@H](C)NC(=O)[C@@H]2C[C@@H](O)CN2C(=O)[C@@H](NC(=O)CCCCOc2ccccc2-c2ccc3nc(-c4cccnc4N)n(-c4ccc(C5(N)CCC5)cc4)c3n2)C(C)(C)C)cc1 [INY.04.125.01]
- logFC [2]: −0.4176
- logFC LATS1 [2]: −0.4176
- logFC [3]: −0.4084
- logFC STK17A [3]: −0.4084
- logFC IP6K2 [4]: −0.4946

Structure (SMILES): Cc1cc(S(=O)(=O)NCCOCCOCCOCCOCCNc2cccc3c2C(=O)N(C2CCC(=O)NC2=O)C3=O)ccc1Nc1ncc(Br)c(Nc2cccc(F)c2C(N)=O)n1 (centres unmarked) [TMX.02.172]
- logFC AURKA (O14965) [5]: −2.402
- logFC [6]: −1.302
- logFC CDK1 [6]: −1.302
- logFC CDK2 (P24941-1) [7]: −2.199
- logFC CDK2 (P24941-1) ([7]; direction of change down): −2.199
- logFC TTK ([8]; Accession P33981): −0.7542
- logFC TTK (P33981) [8]: −0.7542
- logFC [9]: −1.091
- logFC MAPK9 [9]: −1.091
- logFC [10]: −0.8349
- logFC ([10]; direction down): −0.8349
- logFC CDK5 (Q00535) [11]: −2.878
- logFC CDK5 (Q00535) ([11]; direction of change down): −2.878
- logFC [12]: −0.7381
- logFC PTK2 [12]: −0.7381
- logFC [13]: −1.295
- logFC ([13]; direction down): −1.295
- logFC [14, 15]: −0.4856
- logFC AURKB [14, 15]: −0.4856
- logFC MAPK8 (P45983-4) ([14]; Experiment wp146, direction down): −0.5524
- logFC MAPK8 ([14]; MAPK8 P45983-4, experiment wp146): −0.5524
- logFC RPS6KA1 ([14]; RPS6KA1 (Q15418-2), experiment wp146): −1.351
- logFC RPS6KA1 (Q15418-2) ([14]; experiment wp146): −1.351
